Values after ≈ are worked out from the molar mass of the structure shown.
Assay: Solubility of poorly water-soluble natural polyphenolic compound (PSNPPC) in water
Assay type: physicochemical
Details: for solubility: PSNPPC alone, solubility = amount (mg) of solute that dissolves in 1 mL of water at 37° C.
Method: In the present specification. “solubility” refers to an amount (mg) of a solute (PSNPPC) that dissolves in 1 mL of water at 37° C., which is similar to a human body temperature.
Solubility of 3 types of poorly water-soluble natural polyphenolic compounds (PSNPPC) (a product of Naturex SA of France) were measured, and the results thereof are shown in Table 1.

Compound	solubility [µg/mL]	Solubility (@37° C.)
COc1cc(/C=C/C(=O)CC(=O)/C=C/c2ccc(O)c(OC)c2)ccc1O [Curcumin, curcumin]	4 (≈ 10.9 µM)	
Oc1ccc(C=Cc2cc(O)cc(O)c2)cc1 [Resveratrol, resveratrol]	87 (≈ 381 µM)	
silymarin		0.008

Reference: patent US20150342901A1, “COMPOSITION COMPRISING NATURAL POLYPHENOL COMPOUNDS, AND COMPOSITION FOR ORAL ADMINISTRATION COMPRISING SAME” (SAMSUNG FINE CHEMICALS CO., LTD., priority 2012, published 2015)
